Changes are numbered by the printed parent chain. Where two headings read alike, the source gives them in different places.
Columns and labels:
Format in all cases: cell-based
VCaP cells = experiment: Inhibition of proliferation of VCaP cells (WST-8); settings: Homo sapiens, read-out: IC50 for inhibiting the proliferation of VCaP cells
In short: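 VCaP FGC cells, 15000 per well in DMEM with 10% FBS, were cultured at 37° C, 5% CO2. On day nine, WST-8 reagent was added to read proliferation.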

AR protein [1] = target: T1, AR protein (Homo sapiens, UniProt P10275); experiment: Degradation of AR protein in VCaP cells (Western blot); settings: 8 hours; for inhibition at 0.01 µM: compound at 10 nM, read-out: Degradation rate of the AR protein in VCaP cells, 10 nM (%); for inhibition at 0.1 µM: compound at 100 nM, read-out: Degradation rate of the AR protein in VCaP cells, 100 nM (%)
T1 construct: degradation activity of the compounds disclosed in the present disclosure on AR protein in VCaP cells; host or cells: VCaP
T1 sequence (P10275 1-920): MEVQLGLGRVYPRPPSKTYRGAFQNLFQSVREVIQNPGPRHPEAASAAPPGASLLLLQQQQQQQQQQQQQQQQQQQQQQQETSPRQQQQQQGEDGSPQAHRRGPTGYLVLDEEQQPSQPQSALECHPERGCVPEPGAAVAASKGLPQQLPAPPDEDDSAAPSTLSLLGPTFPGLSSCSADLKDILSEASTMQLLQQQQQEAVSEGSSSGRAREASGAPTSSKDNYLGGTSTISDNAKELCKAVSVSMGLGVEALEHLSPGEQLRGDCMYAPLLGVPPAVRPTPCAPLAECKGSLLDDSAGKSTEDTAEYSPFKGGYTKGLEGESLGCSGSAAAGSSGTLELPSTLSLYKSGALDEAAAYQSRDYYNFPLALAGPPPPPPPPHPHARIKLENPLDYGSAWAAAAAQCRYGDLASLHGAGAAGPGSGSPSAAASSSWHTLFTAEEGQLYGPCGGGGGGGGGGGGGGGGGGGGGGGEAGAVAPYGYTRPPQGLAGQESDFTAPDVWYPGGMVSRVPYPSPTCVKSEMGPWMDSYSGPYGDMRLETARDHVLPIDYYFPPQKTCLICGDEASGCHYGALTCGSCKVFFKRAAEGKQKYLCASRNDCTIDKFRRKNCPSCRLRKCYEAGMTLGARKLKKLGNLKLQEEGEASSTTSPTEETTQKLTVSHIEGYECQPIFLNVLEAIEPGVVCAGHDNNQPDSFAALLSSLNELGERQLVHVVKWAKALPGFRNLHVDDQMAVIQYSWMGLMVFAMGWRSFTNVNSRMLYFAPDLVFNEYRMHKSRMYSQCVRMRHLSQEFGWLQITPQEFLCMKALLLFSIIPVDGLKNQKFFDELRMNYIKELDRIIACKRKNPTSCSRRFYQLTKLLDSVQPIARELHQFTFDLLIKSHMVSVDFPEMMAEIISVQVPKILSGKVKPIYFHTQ
In short: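 VCaP cells treated with compound alongside solvent controls for 8 h, then lysed in RIPA and protein quantified by BCA. AR detected by SDS-PAGE/Western blot with infrared imaging. Degradation rate calculated from band grayscale, with GAPDH as internal reference.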

AR protein [2] = target: T2, AR protein (Homo sapiens, UniProt P10275, T878A); experiment: Degradation of AR protein in LNCaP cells (Western blot); settings: for inhibition at 0.01 µM: read-out: Degradation rates of the AR protein in LNCaP cells, 10 nM (%); for inhibition at 0.1 µM: read-out: Degradation rates of the AR protein in LNCaP cells, 100 nM (%)
T2 construct: degradation activity of the compounds disclosed in the present disclosure on AR protein in LNCaP cells; host or cells: LNCaP FGC
T2 sequence (P10275 1-920 T878A): T1 sequence (P10275 1-920) with T878A
In short: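 AR assessed by SDS-PAGE/Western blot with infrared imaging; band greyscale normalised to GAPDH gave percent degradation.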

LNCaP FGC cells = experiment: Inhibition of proliferation of LNCaP cells (WST-8); settings: Homo sapiens, LNCaP, 96 h
Method: The cells were cultured in a cell culture incubator with 5% CO2 at 37° C. overnight. […] On the sixth day, 96 well plates were taken out, and 20 μL of WST-8 (Beytime, C0040) reagent was added to each well.

[3] = VCaP cells, 168 hours, WST-8 absorbance at 450 nm
[4] = LNCaP cells, compound 10 nM, 8 hours, Western blot grayscale, GAPDH internal reference
[5] = LNCaP cells, compound 100 nM, 8 hours, Western blot grayscale, GAPDH internal reference
[6] = LNCaP FGC cells, 96 hours, WST-8 absorbance at 450 nm, read-out: IC50 for inhibiting the proliferation of LNCaP cells
[7] = read-out: IC50 for inhibiting the proliferation of LNCaP cells, LNCaP FGC cells, 96 hours, WST-8 absorbance at 450 nm

N#Cc1ccc(O[C@H]2CC[C@H](NC(=O)c3ccc(N4CCC(F)(CN5CCC6(CC5)COc5cc7c(cc5C6)C(=O)N(C5CCC(=O)NC5=O)C7=O)CC4)nn3)CC2)cc1Cl (stereo partly drawn) [Compound 67]
IC50 (VCaP cells; [3]): 190 nM
inhibition at 0.01 µM (AR protein [1]): 43%
inhibition at 0.1 µM (AR protein [1]): 72%
inhibition at 0.01 µM (AR protein [2]; [4]): 37%
inhibition at 0.1 µM (AR protein [2]; [5]): 60%
IC50 (LNCaP FGC cells; [6]): 15 nM

COc1cc(O[C@H]2C(C)(C)[C@H](NC(=O)c3ccc(N4CCC(CN5CC6(CCc7cc8c(cc7O6)CN(C6CCC(=O)NC6=O)C8=O)C5)CC4)cc3)C2(C)C)ccc1C#N (stereo partly drawn) [Compound 297]
IC50 (VCaP cells; [3]): 2 nM
inhibition at 0.01 µM (AR protein [1]): 47%
inhibition at 0.1 µM (AR protein [1]): 81%
inhibition at 0.01 µM (AR protein [2]; [4]): 42%
inhibition at 0.1 µM (AR protein [2]; [5]): 40%
IC50 (LNCaP FGC cells; [6]): 61400 nM

CC1(C)[C@H](NC(=O)c2ccc(N3CCC(F)(CN4CCC5(CC4)COc4c5ccc5c4CN(C4CCC(=O)NC4=O)C5=O)CC3)nn2)C(C)(C)[C@H]1Oc1ccc(C#N)c(C(F)(F)F)c1 (stereo partly drawn) [Compound 237]
IC50 (VCaP cells; [3]): 4.5 nM
inhibition at 0.01 µM (AR protein [1]): -46%
inhibition at 0.1 µM (AR protein [1]): 23%
inhibition at 0.01 µM (AR protein [2]; [4]): 6%
inhibition at 0.1 µM (AR protein [2]; [5]): 39%
IC50 (LNCaP FGC cells; [6]): 51 nM

N#Cc1ccc(O[C@H]2CC[C@H](NC(=O)c3ccc(N4CC(N5CCC6(CCc7ccc8c(c7O6)CN(C6CCC(=O)NC6=O)C8=O)CC5)C4)nn3)CC2)cc1Cl (stereo partly drawn) [Compound 172]
IC50 (VCaP cells; VCaP, 168 h): 78800 nM
inhibition at 0.01 µM (AR protein [1]): -9%
inhibition at 0.1 µM (AR protein [1]): -14%
inhibition at 0.01 µM (AR protein [2]; LNCaP, 8 h): 12%
inhibition at 0.1 µM (AR protein [2]; LNCaP, 8 h): 33%
IC50 (LNCaP FGC cells; [7]): 91400 nM

N#Cc1ccc(O[C@H]2CC[C@H](NC(=O)c3ccc(N4CCC(N5CCC6(CC5)COc5cc7c(cc56)C(=O)N(C5CCC(=O)NC5=O)C7=O)CC4)nn3)CC2)cc1Cl (stereo partly drawn) [Compound 48]
IC50 (VCaP cells; VCaP, 168 h): 180 nM
inhibition at 0.01 µM (AR protein [1]): 69%
inhibition at 0.1 µM (AR protein [1]): 82%
inhibition at 0.01 µM (AR protein [2]; LNCaP, 8 h): 73%
inhibition at 0.1 µM (AR protein [2]; LNCaP, 8 h): 91%
IC50 (LNCaP FGC cells; [7]): 1670 nM

COc1cc(O[C@H]2C(C)(C)[C@H](NC(=O)c3ccc(N4CCC(C)(CN5CCC6(CCc7ccc8c(c7O6)CN(C6CCC(=O)NC6=O)C8=O)CC5)CC4)cc3)C2(C)C)ccc1C#N (stereo partly drawn) [Compound 283]
IC50 (VCaP cells; [3]): 13 nM
inhibition at 0.01 µM (AR protein [1]): 2%
inhibition at 0.1 µM (AR protein [1]): 45%
inhibition at 0.01 µM (AR protein [2]; [4]): 53%
inhibition at 0.1 µM (AR protein [2]; [5]): 66%
IC50 (LNCaP FGC cells; [6]): 97600 nM

N#Cc1ccc(O[C@H]2CC[C@H](NC(=O)c3ccc(N4CCC(N5CCC(N6CCC7(CC6)COc6c7ccc7c6CN(C6CCC(=O)NC6=O)C7=O)CC5)CC4)nn3)CC2)cc1Cl (stereo partly drawn) [Compound 173]
IC50 (VCaP cells; VCaP, 168 h): 1 nM
inhibition at 0.01 µM (AR protein [1]): 75%
inhibition at 0.1 µM (AR protein [1]): 86%
inhibition at 0.01 µM (AR protein [2]; LNCaP, 8 h): 75%
inhibition at 0.1 µM (AR protein [2]; LNCaP, 8 h): 72%
IC50 (LNCaP FGC cells; [7]): 12300 nM

N#Cc1ccc(O[C@H]2CC[C@H](NC(=O)c3ccc(N4CCC(F)(CN5CC6(CCc7ccc8c(c7O6)C(=O)N(C6CCC(=O)NC6=O)C8)C5)CC4)nn3)CC2)cc1Cl (stereo partly drawn) [Compound 139]
IC50 (VCaP cells; [3]): > 90000 nM
inhibition at 0.01 µM (AR protein [1]): -16%
inhibition at 0.1 µM (AR protein [1]): -31%
inhibition at 0.01 µM (AR protein [2]; [4]): 42%
inhibition at 0.1 µM (AR protein [2]; [5]): 11%
IC50 (LNCaP FGC cells; [6]): 52300 nM

N#Cc1ccc(O[C@H]2CC[C@H](NC(=O)c3ccc(N4CC[C@@H](CN5CCC6(CC5)COc5cc7c(cc56)C(=O)N(C5CCC(=O)NC5=O)C7=O)C4)nn3)CC2)cc1Cl (stereo partly drawn) [Compound 57]
IC50 (VCaP cells; [3]): 38 nM
inhibition at 0.01 µM (AR protein [1]): 66%
inhibition at 0.1 µM (AR protein [1]): 80%
inhibition at 0.01 µM (AR protein [2]; [4]): 45%
inhibition at 0.1 µM (AR protein [2]; [5]): 72%
IC50 (LNCaP FGC cells; [6]): 1360 nM

N#Cc1ccc(O[C@H]2CC[C@H](NC(=O)c3ccc(N4CCC5(CC4)COc4cc6c(cc45)C(=O)N(C4CCC(=O)NC4=O)C6=O)nn3)CC2)cc1Cl (stereo partly drawn) [Compound 52]
IC50 (VCaP cells; [3]): 6800 nM
inhibition at 0.01 µM (AR protein [1]): 16%
inhibition at 0.1 µM (AR protein [1]): 26%
inhibition at 0.01 µM (AR protein [2]; [4]): 43%
inhibition at 0.1 µM (AR protein [2]; [5]): 22%
IC50 (LNCaP FGC cells; [6]): 4500 nM

CC1(C)[C@H](NC(=O)c2ccc(N3CCC(CN4CCC5(CC4)COc4c5ccc5c4CN(C4CCC(=O)NC4=O)C5=O)CC3)nn2)C(C)(C)[C@H]1Oc1ccc(C#N)c(Cl)c1 (stereo partly drawn) [Compound 210]
IC50 (VCaP cells; [3]): 2 nM
inhibition at 0.01 µM (AR protein [1]): 28%
inhibition at 0.1 µM (AR protein [1]): 71%
inhibition at 0.01 µM (AR protein [2]; [4]): 61%
inhibition at 0.1 µM (AR protein [2]; [5]): 59%
IC50 (LNCaP FGC cells; [6]): 8 nM

COc1cc(O[C@H]2CC[C@H](NC(=O)c3ccc(N4CCC(CN5CC6(CCc7cc8c(cc7O6)C(=O)N(C6CCC(=O)NC6=O)C8=O)C5)(OC)CC4)nn3)CC2)ccc1C#N (stereo partly drawn) [Compound 231]
IC50 (VCaP cells; [3]): 5120 nM
inhibition at 0.01 µM (AR protein [1]): 11%
inhibition at 0.1 µM (AR protein [1]): 63%
inhibition at 0.01 µM (AR protein [2]; [4]): 31%
inhibition at 0.1 µM (AR protein [2]; [5]): 28%
IC50 (LNCaP FGC cells; [6]): 3710 nM

COc1cc(O[C@H]2C(C)(C)[C@H](NC(=O)c3ccc(N4CCC(F)(CN5CCC6(CC5)COc5c6ccc6c5C(=O)N(C5CCC(=O)NC5=O)C6=O)CC4)cc3)C2(C)C)ccc1C#N (stereo partly drawn) [Compound 275]
IC50 (VCaP cells; [3]): 20 nM
inhibition at 0.01 µM (AR protein [1]): 7%
inhibition at 0.1 µM (AR protein [1]): 51%
inhibition at 0.01 µM (AR protein [2]; [4]): 30%
inhibition at 0.1 µM (AR protein [2]; [5]): 54%
IC50 (LNCaP FGC cells; [6]): 240 nM

CCOC1(CN2CCC3(CC2)COc2c3ccc3c2C(=O)N(C2CCC(=O)NC2=O)C3=O)CCN(c2ccc(C(=O)N[C@H]3C(C)(C)[C@H](Oc4ccc(C#N)c(OC)c4)C3(C)C)cc2)CC1 (stereo partly drawn) [Compound 295]
IC50 (VCaP cells; [3]): 20 nM
inhibition at 0.01 µM (AR protein [1]): -4%
inhibition at 0.1 µM (AR protein [1]): 37%
inhibition at 0.01 µM (AR protein [2]; [4]): 1%
inhibition at 0.1 µM (AR protein [2]; [5]): 44%
IC50 (LNCaP FGC cells; [6]): 370 nM

N#Cc1ccc(O[C@H]2CC[C@H](NC(=O)c3ccc(N4CCC5(CCC(N6CCC7(CCc8ccc9c(c8O7)CN(C7CCC(=O)NC7=O)C9=O)CC6)CC5)CC4)nn3)CC2)cc1Cl (stereo partly drawn) [Compound 150]
IC50 (VCaP cells; [3]): 3340 nM
inhibition at 0.01 µM (AR protein [1]): 65%
inhibition at 0.1 µM (AR protein [1]): 86%
inhibition at 0.01 µM (AR protein [2]; [4]): 52%
inhibition at 0.1 µM (AR protein [2]; [5]): 35%
IC50 (LNCaP FGC cells; [6]): 3130 nM

From US20260234157A1, “COMPOUND AND METHOD FOR TARGETED DEGRADATION OF ANDROGEN RECEPTOR” (Gan & Lee Pharmaceuticals Co., Ltd., priority 2023, published 2026)
